The conditions of data set [1]: cited from earlier work.
For data set [2] the following is noted: at 3 hours; 0.5 mg/mL.
Protocol: Approximately 1 mL of bupivacaine solution (0.5 mg/mL in water) or bupivacaine nanoemulsion (0.5 mg/mL in nS100) were added to the donor chamber. At each time point, 70 μL was removed from the receiver chamber and replaced with an equivalent volume of fresh PBS to maintain constant volume. The aliquot from each time point was analyzed by HPLC to determine amount of drug permeating through the membrane over time. The HPLC system consisted of an LC-20AD pump, SIL-20AC HT autosampler, CTO-20A column oven, and SPD-20A UV/vis detector (Shimadzu Scientific Instruments, Inc.). HPLC conditions were: 30 μL injection volume, isocratic elution of mobile phase consisting of 75% methanol and 25% 10 mM sodium phosphate buffer (pH 7.8), flow rate of 1.000 mL/min, column temperature of 40° C., and detection at 263 nm.
The conditions of data set [3]: 10 mg/mL.
Protocol: Sesame EMO nanoemulsion (nS50) was prepared from a combination of sesame EMO and FFA oil. Sesame EMO (0.852 g) and sesame FFA (0.648 g) were weighed into a 50 mL metal beaker and heated to 60° C. A coarse emulsion was prepared by adding 13.5 mL water (pre-heated to 60° C.) to the oil. The mixture was subjected to high-sheer homogenizer for 30 seconds, resulting in a milky coarse emulsion. The coarse emulsion was then transferred to QSonica Q700CA sonicator with ½ inch probe. The emulsion was processed for 2 cycles (5 minutes sonication/2 minutes cooling) at 90% power. Approximately 1 mL of trifluoroacetyl tripeptide-2 (Cayman Chemical Company) solution (10 mg/mL in 10% DMSO in water) or trifluoroacetyl tripeptide-2 nanoemulsion (10 mg/mL in 10% DMSO in nS50) were added to the donor chamber. At each time point, 70 μL was removed from the receiver chamber and replaced with an equivalent volume of fresh PBS to maintain constant volume. The aliquot from each time point was analyzed by HPLC to determine amount of drug permeating through the membrane over time.
For data set [4] the following is noted: over 7 hours; 1 mg/mL, pH 5-6.
Protocol: At each time point, 80 μL was removed from the receiver chamber and replaced with an equivalent volume of fresh PBS to maintain constant volume. The aliquot from each time point was analyzed by HPLC to determine amount of drug permeating through the membrane over time. The HPLC system consisted of an LC-20AD pump, SIL-20AC HT autosampler, CTO-20A column oven, and SPD-20A UV/vis detector (Shimadzu Scientific Instruments, Inc.). HPLC conditions were: 30 μL injection volume, isocratic elution of mobile phase consisting of 50% methanol and 50% phosphoric acid (0.1%), flow rate of 1.000 mL/min, column temperature of 40° C., and detection at 275 nm.
The conditions of data set [5]: over 24 hours; 10 mg/mL.
Protocol: Sesame EMO nanoemulsion (nS50) was prepared from a combination of sesame EMO and FFA oil. Sesame EMO (0.852 g) and sesame FFA (0.648 g) were weighed into a 50 mL metal beaker and heated to 60° C. A coarse emulsion was prepared by adding 13.5 mL water (pre-heated to 60° C.) to the oil. The mixture was subjected to high-sheer homogenizer for 30 seconds, resulting in a milky coarse emulsion. The coarse emulsion was then transferred to QSonica Q700CA sonicator with ½ inch probe. The emulsion was processed for 2 cycles (5 minutes sonication/2 minutes cooling) at 90% power. […] At each time point, 70 μL was removed from the receiver chamber and replaced with an equivalent volume of fresh PBS to maintain constant volume. The aliquot from each time point was analyzed by HPLC to determine amount of drug permeating through the membrane over time. The HPLC system consisted of an LC-20AD pump, SIL-20AC HT autosampler, CTO-20A column oven, and SPD-20A UV/vis detector (Shimadzu Scientific Instruments, Inc.). HPLC conditions were: 30 μL injection volume, isocratic elution of mobile phase consisting of 60% methanol and 40% phosphoric acid (0.1%), flow rate of 1.000 mL/min, column temperature of 40° C., and detection at 210 nm.

The source of these data is US20240050422A1, “DRUG DELIVERY VIA MONOACYLGLYCEROL AND FREE FATTY ACID-BASED COMPOSITIONS” (GLYCOSBIO, INC., priority 2021, published 2024).

Where two headings read alike, the source gives them in different places.

With `C=C(C)[C@@H]1CCC(C)=C[C@H]1c1c(O)cc(CCCCC)cc1O` [CBD, cannabidiol], the solubility in water entry in data set [1] was “essentially insoluble in water”.

With `CCCCN1CCCCC1C(=O)Nc1c(C)cccc1C` (stereo not drawn) [free drug control (bupivacaine), bupivacaine], the bupivacaine permeation entry in data set [2] was “undetectable permeation”.

On to trifluoroacetyl tripeptide-2, for which the results for the “trifluoroacetyl tripeptide-2 permeation” value in data set [3] (after 24 hours) and in data set [3] (at 6 hours) were 1.1 ug/cm^2 and “no peptide permeation”, respectively.

For `O=C(O)c1ccccc1O` [free drug control (salicylic acid), salicylic acid], the salicylic acid permeation entry in data set [4] is “no salicylic acid permeation”.

Take “hexapeptide-11 [free peptide control (hexapeptide-11)]”: in data set [5], the hexapeptide-11 permeation result is reported as “no peptide permeation”.
